{"source": "patent US5602171A", "about": "“Methods of inhibiting phosphatase activity and treatment of disorders associated therewith using naphthopyrones and derivatives thereof” (Sugen Inc., priority 1995, dated 1997)", "tested_on": "3T3-L1 cells", "experiment": "Glucose transport assay", "format": "cell-based", "conditions": "differentiated 3T3-L1 preadipocyte cell line, in the absence of insulin; 0.1 μM to 500 μM, 1-4 hours", "description": "This assay was used to assess the ability of the compounds of the invention to inhibit phosphatase activity that is involved in the signaling pathway that regulates the insulin-induced facilitated transport of glucose into adipocytes. […] Any compounds of the invention may be tested in this assay.\nThe cell line used for the glucose transport assay was 3T3-L1, a preadipocyte cell line (American Type Culture Collection CCL92.1) which overexpress the insulin receptor. The 3T3-L1 cells were first differentiated by treating cells under confluent growth in DMEM containing 10% fetal bovine serum (FBS) with 0.5 mM 3-isobutyl-1-methyl-xanthine, 5 μg/ml porcine insulin, […] dexamethasone for 2 days. The cells were then grown in DMEM containing 10% FBS and 5 μg/ml porcine insulin for two days, after which the cells were cultured in DMEM containing only 10% FBS.\nCells for use in the assay were first grown overnight in DMEM media and 1% FBS at 37° C. at 5% CO2. Two hours before use, the overnight media was replaced with serum free DMEM containing 5 mM glucose. […] The wells were washed each with 200 μl PBS which was transferred to the corresponding scintillation vial. ^3 H radioactivity was counted with a Beckman counter."}
{"smiles": "CC1CC(=O)c2c(cc3c(-c4c(O)cc(O)c5c(O)c6c(cc45)OC(C)CC6=O)c(O)cc(O)c3c2O)O1", "note": "(stereo not shown) [Compound 1]", "values": [{"measurement": "uptake of 2-deoxy-3H-glucose", "result": "Dose response effect"}]}
